Reference: ChEMBL document CHEMBL1201862, “PubChem BioAssay data set” (2004)
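Compound exposure: 48 hours, 5 concentrations, 96-well plates. Abbreviation: GI50, concentration required for 50% inhibition of growth.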 Calls of active or inactive are those of the source. Cut-off read from the data, not from the text of the source: active = GI50 up to about 1.1 µM and inactive = higher.

Tests used:
Test in all cases: NCI anticancer screen, dose series, 48 h
SK-MEL-28 = tested on: SK-MEL-28
NCI-H226 = tested on: NCI-H226
HCC 2998 = tested on: HCC 2998
CCRF-CEM = tested on: CCRF-CEM
Hs-578T = tested on: Hs-578T
A549 = tested on: A549
NCI/ADR-RES = tested on: NCI/ADR-RES
SF-295 = tested on: SF-295
SR = tested on: SR
SK-OV-3 = tested on: SK-OV-3
A498 = tested on: A498
EKVX = tested on: EKVX
SK-MEL-2 = tested on: SK-MEL-2
HCT-15 = tested on: HCT-15
NCI-H460 = tested on: NCI-H460
HT-29 = tested on: HT-29
MOLT-4 = tested on: MOLT-4
HL-60 = tested on: HL-60
OVCAR-8 = tested on: OVCAR-8
M14 = tested on: M14

Structure (SMILES)	GI50 (SK-MEL-28)	GI50 (NCI-H226)	GI50 (HCC 2998)	GI50 (CCRF-CEM)	GI50 (Hs-578T)	GI50 (A549)	GI50 (NCI/ADR-RES)	GI50 (SF-295)	GI50 (SR)	GI50 (SK-OV-3)	GI50 (A498)	GI50 (EKVX)	GI50 (SK-MEL-2)	GI50 (HCT-15) [µM]	GI50 (NCI-H460)	GI50 (HT-29)	GI50 (MOLT-4)	GI50 (HL-60)	GI50 (OVCAR-8)	GI50 (M14)
CCN(CC)CCN1c2ccccc2Sc2ccc3ccccc3c21	7.46 µM (inactive)	7.45 µM (inactive)	2.23 µM (inactive)	2.92 µM (inactive)	13.5 µM (inactive)	14.2 µM (inactive)	10.6 µM (inactive)	13.2 µM (inactive)	4.94 µM (inactive)	15.8 µM (inactive)	11.4 µM (inactive)	6.37 µM (inactive)	14.3 µM (inactive)	6.9	2.07 µM (inactive)	3.18 µM (inactive)	3.74 µM (inactive)	3.54 µM (inactive)	12.6 µM (inactive)	3.01 µM (inactive)
CCc1nn(CN2CCOCC2)c(=S)n1/N=C/c1ccc(-c2ccc(Cl)cc2)o1	> 100 µM (inactive)	> 100 µM (inactive)			> 100 µM (inactive)	> 100 µM (inactive)	> 100 µM (inactive)	> 100 µM (inactive)	80.5 µM (inactive)		> 100 µM (inactive)	> 100 µM (inactive)	> 100 µM (inactive)	> 100	> 100 µM (inactive)	> 100 µM (inactive)	> 100 µM (inactive)	81.1 µM (inactive)	> 100 µM (inactive)	> 100 µM (inactive)
COc1cc2c(c(OC)c1OC)-c1ccc(SC)c(=O)cc1[C@@H](NC(=O)C(F)(F)F)CC2	0.766 µM (active)	0.199 µM (active)	< 0.01 µM (active)	< 0.01 µM (active)	< 0.01 µM (active)	< 0.01 µM (active)	0.0261 µM (active)	< 0.01 µM (active)	< 0.01 µM (active)	0.13 µM (active)	< 0.01 µM (active)	13.8 µM (inactive)	< 0.01 µM (active)	< 0.01	< 0.01 µM (active)	< 0.01 µM (active)	< 0.01 µM (active)	< 0.01 µM (active)	< 0.01 µM (active)	< 0.01 µM (active)
COC(=O)N[C@H](C(=O)O)C(C)O[Si](C)(C)C(C)(C)C (some centres undefined)	> 100 µM (inactive)	> 100 µM (inactive)	> 100 µM (inactive)	> 100 µM (inactive)	> 100 µM (inactive)	> 100 µM (inactive)	> 100 µM (inactive)	> 100 µM (inactive)	> 100 µM (inactive)	> 100 µM (inactive)	> 100 µM (inactive)	> 100 µM (inactive)		> 100	> 100 µM (inactive)	> 100 µM (inactive)	> 100 µM (inactive)	> 100 µM (inactive)	> 100 µM (inactive)	
CC(=O)OCC1OC(c2nnc(C)o2)=CC(OC(C)=O)C1OC(C)=O (centres undefined)	> 100 µM (inactive)	> 100 µM (inactive)		> 100 µM (inactive)	> 100 µM (inactive)	> 100 µM (inactive)	> 100 µM (inactive)	> 100 µM (inactive)	> 100 µM (inactive)		> 100 µM (inactive)	> 100 µM (inactive)			> 100 µM (inactive)	> 100 µM (inactive)	> 100 µM (inactive)	> 100 µM (inactive)	> 100 µM (inactive)	
c1c[nH]c(CN2CCN(Cc3ncc[nH]3)CC2)n1	> 100 µM (inactive)	> 100 µM (inactive)		> 100 µM (inactive)	> 100 µM (inactive)	> 100 µM (inactive)	> 100 µM (inactive)	> 100 µM (inactive)	> 100 µM (inactive)	> 100 µM (inactive)	> 100 µM (inactive)	52.2 µM (inactive)	> 100 µM (inactive)	> 100	> 100 µM (inactive)	> 100 µM (inactive)	> 100 µM (inactive)	> 100 µM (inactive)	> 100 µM (inactive)	> 100 µM (inactive)
COc1ccc(C(=O)c2sc(N(C)C)nc2-c2ccccc2)cc1	32.1 µM (inactive)	67.5 µM (inactive)	18.2 µM (inactive)	5.07 µM (inactive)	38.7 µM (inactive)	36 µM (inactive)	19.8 µM (inactive)		17.1 µM (inactive)	22.5 µM (inactive)	26.9 µM (inactive)		22.5 µM (inactive)	26.4	20.2 µM (inactive)	32.9 µM (inactive)	81.3 µM (inactive)	17.1 µM (inactive)		35.3 µM (inactive)
Nc1ccc(Oc2ccc(C34CC5CC(C3)CC(c3ccc(Oc6ccc(N)cc6)cc3)(C5)C4)cc2)cc1	18.9 µM (inactive)	26.5 µM (inactive)	4.9 µM (inactive)	> 22 µM (inactive)	20.2 µM (inactive)	11.1 µM (inactive)	13.9 µM (inactive)	10.3 µM (inactive)	3.56 µM (inactive)	22.2 µM (inactive)	12 µM (inactive)	25.4 µM (inactive)	13.1 µM (inactive)	10.8	10.7 µM (inactive)	8.11 µM (inactive)		> 41.3 µM (inactive)	5.26 µM (inactive)	10.4 µM (inactive)
COc1cccc2c1OC(c1ccc(C#N)cc1)C([N+](=O)[O-])=C2 (centres undefined)	2.28 µM (inactive)	2.98 µM (inactive)	1.76 µM (inactive)	1.58 µM (inactive)	1.78 µM (inactive)	2.56 µM (inactive)	> 100 µM (inactive)	6.14 µM (inactive)	0.778 µM (active)	3.23 µM (inactive)	1.84 µM (inactive)	6.24 µM (inactive)	2.01 µM (inactive)	1.7	2.22 µM (inactive)	1.72 µM (inactive)		1.41 µM (inactive)	1.25 µM (inactive)	1.78 µM (inactive)
CCCCCCCCCCCCCCCCOP(=O)([O-])OCC[N+](C)(C)C [MILTEFOSINE]	27.9 µM (inactive)	20.7 µM (inactive)	5.38 µM (inactive)		19.3 µM (inactive)	7.11 µM (inactive)	43.4 µM (inactive)	7.69 µM (inactive)	6.21 µM (inactive)	8.91 µM (inactive)	12.9 µM (inactive)	27 µM (inactive)	21 µM (inactive)	10.5	6 µM (inactive)	7.8 µM (inactive)	8.73 µM (inactive)	4.74 µM (inactive)	25.8 µM (inactive)	16.4 µM (inactive)
N/C(=N\c1ccc(Cl)cc1)NS(=O)(=O)c1ccc(S(=O)(=O)c2ccccc2)s1	19.7 µM (inactive)	26.4 µM (inactive)			24 µM (inactive)	23.9 µM (inactive)	18 µM (inactive)	15.1 µM (inactive)	24.8 µM (inactive)	38.7 µM (inactive)	17.4 µM (inactive)	12.9 µM (inactive)	14.1 µM (inactive)	17.5	17.3 µM (inactive)	21.7 µM (inactive)	18 µM (inactive)	22.3 µM (inactive)	20 µM (inactive)	17.9 µM (inactive)
N=c1oc2ccccc2cc1C(=O)Nc1ccccn1	> 100 µM (inactive)	> 100 µM (inactive)	> 100 µM (inactive)	44.8 µM (inactive)	75 µM (inactive)	> 100 µM (inactive)	> 100 µM (inactive)		86.7 µM (inactive)	> 100 µM (inactive)	> 100 µM (inactive)	33.2 µM (inactive)	29.4 µM (inactive)	75	95.9 µM (inactive)	> 100 µM (inactive)	66.4 µM (inactive)	> 100 µM (inactive)	> 100 µM (inactive)	> 100 µM (inactive)
COC(=O)CC(C)(N[S+]([O-])c1ccc(C)cc1)c1ccccc1 (centres undefined)	> 100 µM (inactive)	> 100 µM (inactive)	> 100 µM (inactive)		> 100 µM (inactive)	> 100 µM (inactive)	> 100 µM (inactive)	> 100 µM (inactive)	> 100 µM (inactive)	> 100 µM (inactive)	> 100 µM (inactive)	> 100 µM (inactive)	> 100 µM (inactive)	> 100	> 100 µM (inactive)	> 100 µM (inactive)	> 100 µM (inactive)	> 100 µM (inactive)		
O=C(Cn1c(C(=O)/C=C/c2ccc(Cl)c(Cl)c2)nc2ccccc21)c1ccccc1	35.3 µM (inactive)	31.7 µM (inactive)	17.8 µM (inactive)	6.92 µM (inactive)	27.3 µM (inactive)	21.7 µM (inactive)	21.8 µM (inactive)		25 µM (inactive)	28.6 µM (inactive)	26.1 µM (inactive)	14.4 µM (inactive)	19.8 µM (inactive)	25.2	16.2 µM (inactive)	16 µM (inactive)	27.9 µM (inactive)	15.6 µM (inactive)		23.2 µM (inactive)
O=C1C[C@H](CCC(=O)OCc2ccccc2)NC(=O)C[C@H](CCC(=O)OCc2ccccc2)NC(=O)C[C@H](CCC(=O)OCc2ccccc2)N1	> 100 µM (inactive)	> 100 µM (inactive)	> 100 µM (inactive)	> 100 µM (inactive)	5.24 µM (inactive)	> 100 µM (inactive)	82.4 µM (inactive)	8.81 µM (inactive)	> 100 µM (inactive)	5.92 µM (inactive)	7.57 µM (inactive)	> 100 µM (inactive)	17.1 µM (inactive)	> 100	> 100 µM (inactive)	> 100 µM (inactive)	> 100 µM (inactive)		> 100 µM (inactive)	> 100 µM (inactive)
